Data reported in US12599602B2, “Methods for treating cholestasis” (Mirum Pharmaceuticals, Inc., priority 2019, dated 2026).
Several values for one entry are separate records, joined by “and”; a condition that tells them apart may be missing. Identical values can stand only once. Like-named read-outs stand apart in the source and are kept apart here.

Assays:
[1] = system: Children with Progressive Familial Intrahepatic Cholestasis; experiment: INDIGO phase 2 open-label efficacy and safety clinical study of maralixibat in PFIC; format: in vivo, human; conditions: week 48
[2] = system: Children with Alagille Syndrome
Procedure: Children aged 1-18 years with a diagnosis of ALGS and evidence of cholestasis were eligible to enroll in the ICONIC clinical study, see Tables 12-14. During a long-term extension, participants with sBA levels above the upper limit of normal and/or an ITCHRO(OBS) score >1.5 were eligible for the 400 μg/kg BID dose (all participants received the 400 μg/kg BID dose). Inclusion criteria for the ICONIC study included having cholestasis, which was defined as at least one of 1) sBA concentration (total sBA) >3× the upper limit of normal, 2) serum conjugated bilirubin concentration >1 mg/dL, 3) fat-soluble vitamin deficiency not otherwise explained, 4) serum gamma-glutamyl transferase concentration >3× the upper limit of normal, and 3) intractable pruritus explainable only by liver disease. Inclusion criteria also included having significant pruritus, which was defined as an average daily score of >2 on the ITCHRO(OBS) scale for 2 consecutive weeks (0=no pruritus; 4=most severe pruritus). Exclusion criteria included having surgically disrupted enterohepatic circulation, a liver transplant, decompensated cirrhosis, or having any liver disease other than ALGS.
sBA responders were defined as those patients achieving ≥50% reduction from baseline in sBA at week 12 or 18. ITCHRO responders were defined as those patients achieving at least a 1-point reduction from Baseline in weekly morning ITCHRO(OBS) score at week 12 or 18.
In the open label extension, the effect of higher doses was explored by increasing dosage to a maximum of 400 μg/kg BID in eligible participants.
Efficacy assessments were based on changes from baseline in sBA concentration, weekly average ITCHRO(OBS) scores (0, none; 4, most severe), CSS score (0, none; 4 most severe), and Clinician Xanthoma Scale score (0, none; 4, disabling). […] During the long-term extension, efficacy assessments were conducted every 12 weeks. Serum total cholesterol and serum 7αC4 concentration were also monitored during the ICONIC clinical study, among other measures.
sBA were measured using a fully validated liquid chromatography-electrospray ionization-mass electrospray (LC-ESI-MS) method using stable-isotope dilution analysis to measure serum concentrations of principal bile acids (cholic, chenodeoxycholic, ursodeoxycholic, deoxycholic acid, lithocholic, and their corresponding glycine and taurine conjugates). Serum samples were analyzed in the Division of Pathology and Laboratory Medicine, Cincinnati Children's Hospital Medical Center according to SOP #PATH.CMS.1033. Calibration standards of individual bile acids were in the range of 50-25,000 ng/mL and Quality Control samples were prepared at concentrations of 100, 500, 1000, 2500, and 20000 ng/mL. The intra- and inter-assay imprecision of the method for individual bile acids measured was within the accepted GLP quality assurance guidelines of <15% coefficient of variance for these QC samples. The lower limit of quantification of the assay was set at 100 ng/mL and the imprecision at this concentration was <20%. The limit of detection of the assay was 5 ng/mL. Total sBA is represented by the sum of the individual bile acid species measured.

[3] = Withdrawal-Week 22, Maralixibat group
[4] = first 18 weeks of treatment, 400 μg/kg QD
[5] = one line per Subject ID (Table 18)
[6] = one line per Subject ID (Table 19)
[7] = sBA Normalization (<8.5 μmol/L)

## maralixibat
[1]
  Total bilirubin, change from baseline to week 48, mean: +0.8 mg/dL
  sBA, change from baseline to week 48, mean: -32 µmol/L
[2]; 400 μg/kg QD then 400 μg/kg BID
  weight Z-scores: dose-dependent increase in weight Z-scores
[2]; ITCHRO(OBS) weekly morning average score, one line per Subject ID (Table 18)
  Change in ItchRO from Baseline to Week 48: 0.49 and −0.45 and 1.29 and −3.86 and 0.00 and −2.57 and −1.86 (2×) and −1.71 (2×) and −1.00 (2×) and −1.29 and −1.67 and −1.14 and −1.03 and −3.29 (2×) and −3.43 and −2.50 and −2.71 (2×) and −3.50 and −2.29 and −0.17 and −1.43 and −0.83 and −0.12
[2]; Normalization (<8.5 μmol/L)
  sBA response, Week 48 (N = 28) n (%): 1 (3.6%)
[2]; Open-label Week 18
  ItchRO (Obs) responders, Decrease from baseline ≥1: 67.7%
  ItchRO (Obs) responders, Decrease from baseline ≥1.25: 58.1%
  ItchRO (Obs) responders, Decrease from baseline ≥1.5: 51.6%
[2]; Open-label Week 48
  ItchRO (Obs) responders, Decrease from baseline ≥1: 72.4%
  ItchRO (Obs) responders, Decrease from baseline ≥1.25: 58.6%
  ItchRO (Obs) responders, Decrease from baseline ≥1.5: 51.7%
[2]; Week 48, n = 15
  C4, Mean: 20.4 ng/mL
  Serum cholesterol, Mean: 340.3 mg/dL
[2]; Week 191, n = 15
  C4, Mean: 30.4 ng/mL
  Serum cholesterol, Mean: 277.5 mg/dL
[2]; [3]
  ItchRO (Obs) responders, Decrease from baseline ≥1: 53.8%
  ItchRO (Obs) responders, Decrease from baseline ≥1.25: 46.2%
  ItchRO (Obs) responders, Decrease from baseline ≥1.5: 23.1%
[2]; after 98 weeks, across participants
  study days with minimal or no pruritus (ITCHRO(OBS)≤1): over 89%
[2]; all participants by week 48
  Clinician xanthoma scale scores: improved significantly
[2]; at 191 weeks
  CSS score, mean reduction: 2.4 points
  ITCHRO(OBS) score, mean change from baseline: −2.5
  sBA levels, reduction from baseline: about 57%
[2]; at 193 weeks
  ITCHRO(OBS) final score: about 0.33
  ITCHRO(OBS) score, mean reduction: over 2 points
[2]; by week 48, all participants
  CSS final average score: about 1.5
  CSS scores, average decrease: over 1.5 points
[2]; by week 191
  Clinician Xanthoma Score, reduction from baseline: 0.7 points
[2]; by week 193 (second statement of b611)
  ITCHRO(OBS) scores, average decrease relative to baseline: over 1.5 points
[2]; core study and extension
  PedsQL Multidimensional Fatigue Scale scores: Improvements
[2]; core study and extension, over three years
  tolerability: well tolerated
[2]; doses up to 800 μg/kg/day, treatment duration up to 4 years
  tolerability: generally well tolerated
[2]; [4]
  ITCHRO(OBS) scores, mean change from baseline: −1.7
  sBA concentration, decrease: 31%
[2]; [5]
  Serum Bile Acid, Change from Baseline to Week 48: −166.3 μmol/L and −281.4 μmol/L and 166.4 μmol/L and −121.1 μmol/L and 4.3 μmol/L (2×) and −251.0 μmol/L and 3.3 μmol/L and −27.3 μmol/L and −155.5 μmol/L and −240.2 μmol/L and 9.0 μmol/L and 143.1 μmol/L and −112.2 μmol/L and 16.4 μmol/L and −10.9 μmol/L and −16.9 μmol/L and 54.5 μmol/L and −620.4 μmol/L and −23.9 μmol/L and −377.3 μmol/L and −205.9 μmol/L and −270.4 μmol/L and 25.5 μmol/L and −203.6 μmol/L and −96.4 μmol/L and −33.9 μmol/L and −56.4 μmol/L
  Serum Bile Acid, Week 48: 131.8 µmol/L and 98.5 µmol/L and 578.1 µmol/L and 20.8 µmol/L and 333.0 µmol/L and 119.6 µmol/L and 117.7 µmol/L and 492.6 µmol/L and 427.9 µmol/L and 199.8 µmol/L and 29.2 µmol/L and 891.6 µmol/L and 163.4 µmol/L and 60.2 µmol/L and 12.0 µmol/L and 23.6 µmol/L and 126.1 µmol/L and 37.0 µmol/L and 7.0 µmol/L and 101.9 µmol/L and 293.3 µmol/L and 65.0 µmol/L and 110.9 µmol/L and 35.8 µmol/L and 208.0 µmol/L and 55.8 µmol/L and 15.6 µmol/L and 22.9 µmol/L
[2]; [6]
  ItchRO(Obs) Weekly Morning Average Score, Change from Baseline to Week 48: −0.12 and 0.49 and −0.45 and 1.29 and −3.86 and 0.00 and −2.57 and −1.86 (2×) and −1.71 (2×) and −1.00 (2×) and −1.29 and −1.67 and −1.14 and −1.03 and −3.29 (2×) and −3.43 and −2.50 and −2.71 (2×) and −3.50 and −2.29 and −0.17 and −1.43 and −0.83
  ItchRO(Obs) Weekly Morning Average Score, Week 48: 2.71 and 3.20 and 1.83 and 3.71 and 0.14 and 1.86 and 0.71 and 1.14 (2×) and 0.29 (2×) and 2.00 (2×) and 1.71 (2×) and 1.00 and 1.40 and 0.00 (7×) and 1.43 and 1.57 and 3.50 and 2.17
[2]; participants in the ICONIC clinical study
  Height Z-score, increase from baseline: 0.5
[2]; patients (N=15) given 400 μg/kg BID after 400 μg/kg QD for in excess of about 40 weeks
  growth after dose increase: further increase in growth from baseline
[2]; randomized withdrawal
  ITCHRO(OBS), LS mean difference maralixibat vs placebo: −1.5
[2]; randomized withdrawal (week 18-22)
  sBA levels, least squares mean difference maralixibat vs placebo: −114.0
[2]; [7]
  ItchRO(Obs) Weekly Morning Average Score, Average Change from Baseline: −3.50
  ItchRO(Obs) Weekly Morning Average Score, Week 48 Average Score: 0.00
[2]; sBA ≥50% Reduction
  ItchRO(Obs) Weekly Morning Average Score, Average Change from Baseline: −1.86
  ItchRO(Obs) Weekly Morning Average Score, Week 48 Average Score: 1.07
[2]; sBA ≥60% Reduction
  ItchRO(Obs) Weekly Morning Average Score, Average Change from Baseline: −2.12
  ItchRO(Obs) Weekly Morning Average Score, Week 48 Average Score: 0.82
[2]; sBA ≥70% Reduction
  ItchRO(Obs) Weekly Morning Average Score, Average Change from Baseline: −2.31
  ItchRO(Obs) Weekly Morning Average Score, Week 48 Average Score: 0.62
[2]; sBA ≥80% Reduction
  ItchRO(Obs) Weekly Morning Average Score, Average Change from Baseline: −2.79
  ItchRO(Obs) Weekly Morning Average Score, Week 48 Average Score: 0.11
[2]; sBA ≥90% Reduction
  ItchRO(Obs) Weekly Morning Average Score, Average Change from Baseline: −2.71
  ItchRO(Obs) Weekly Morning Average Score, Week 48 Average Score: 0.00
[2]; week 48
  relation between reduction in sBA concentration and reduction of severity of pruritus (ITCHRO(OBS)): positive correlation
[2]; ≥50% Reduction
  sBA response, Week 48 (N = 28) n (%): 13 (46.4%)
[2]; ≥60% Reduction
  sBA response, Week 48 (N = 28) n (%): 11 (39.3%)
[2]; ≥70% Reduction
  sBA response, Week 48 (N = 28) n (%): 8 (28.6%)
[2]; ≥80% Reduction
  sBA response, Week 48 (N = 28) n (%): 4 (14.3%)
[2]; ≥90% Reduction
  sBA response, Week 48 (N = 28) n (%): 1 (3.6%)
